pEC50: −log10 of the molar value. Like-named read-outs stand apart in the source and are kept apart here.
Legend:
[1] = system: BT20 (Breast Cancer); assay: Methylcellulose clonogenic assay; format: cell-based
Protocol: (§1) The antileukemic activity of compound 6 against clonogenic tumor cells was examined using a methylcellulose colony assay system (Uckun, F. M., et al., J. Exp. Med. 163: 347-368, 1986; Messinger, Y., et al., Clin Cancer Res. 4: 165-70, 1998). In brief, cells (10^5/ml in RPMI-10% FBS) were treated overnight at 37° C. with compound 6 at varying concentrations. After treatment, cells were washed twice, plated at 10^4 or 10^5 cells/ml in RPMI-10% FMS-0.9% methylcellulose in Petri dishes, and cultured for 7 days at 37° C. in a humidified 5% CO2 incubator. Subsequently, leukemic cell (or tumor cell) colonies were enumerated using an inverted phase-contrast microscope. The percent inhibition of colony formation was calculated using the following formula:
(§2) % Inhibition=1−mean number of colonies in test culture×100 mean number of colonies in control culture

[2] = system: MOLT-3 (T-ALL); assay: Methylcellulose clonogenic assay; format: cell-based; details: MOLT-3, 100 μM
Protocol: as §1, §2

[3] = system: skh-1 mice; assay: Chronic UVB-induced skin tumorigenesis; format: in vivo, mouse
Protocol: Female, 6-7 weeks old, hairless albino mice (skh-1) were purchased from Charles River Laboratories (Wilmington, Mass.) and were housed in a controlled environment (12-h light/12-h dark photo period, 22±1° C., 60±10% relative humidity), which is fully accredited by the USDA (United States Department of Agriculture). Animals were caged in groups of five in a pathogen free environment in accordance with the rules and regulations of U.S. Animal Welfare Act, and National Institutes of Health (NIH). All mice were housed in microisolator cages (Lab Products, Inc., N.J.) containing autoclaved bedding. The mice were allowed free access to autoclaved pellet food and tap water throughout the experiments. Animal care and the experimental procedures were carried out in agreement with institutional guidelines.
Ultraviolet lamps (8-FSX24T12/HO/UVB) that emit light predominantly in the UVB range (280-320 nm) were obtained from National Biological Corporation, Twinsburg, Ohio. The irradiance of the UVB lamps was determined before each irradiation, using a UVB meter (model—500C obtained from National Biological Corporation, Twinsburg, Ohio). For exposure to UV light, three mice were placed in an open 28 cm×10 cm plastic box that was divided in three compartments (one mouse per compartment). The plastic box was placed in the center, under the bank of UVB light, and the mice were irradiated with 35 mj/cm^2 dose of UVB. The exposure time for a 35 mj/cm ^2 dose of UVB varied from 30-34 s. The distance between UVB lamps and the surface receiving irradiation was 20 cm.
The mice were treated topically with a single application of Compound 6 (1.0 mg/cm^2, dissolved in DMSO) over a 2 cm^2 area on the dorsal surface before each UVB exposure. After 15 min. following Compound 6 application the mice were irradiated with UVB (35 mj/cm). UVB exposure of mice was performed three times a week for a total of 20 weeks. Control mice were treated with vehicle prior to UVB light exposure.
The skin thickness of mice, and papillary skin lesions greater than 1 mm in diameter were measured and recorded twice every week and the average of the two measurements was used in the calculations. Skin thickness, lesion number and lesion diameter measurements were limited only to the 2 cm^2 area on the dorsal surface of mice that was being treated either with compound 6 or vehicle. Lesion volume were calculated using the formula: […]
At the end of the study, 5-19 lesions from each group were randomly biopsied, and fixed in 10% buffered formalin. Formalin-fixed specimens were embedded in paraffin blocks, sectioned at 4 μm thickness, and stained in haematoxylin-eosin. The pathological evaluation of skin sections was performed by a Certified Veterinary Pathologist who was unaware of the identity of specimens.
The pathological classification of tumors was as follows: 1) Cutaneous papilloma: a tumor papillomatous growth of acanthotic epidermis without invasive growth of tumor cells into the dermis. […] 2) Actinic keratosis: a hyperplastic, orthokeratotic, mildly to moderately acanthotic epithelium. 3) Florid actinic keratosis: actinic keratosis with mild to moderately acanthotic ridges extending into the superficial dermis, resembling superficially invasive squamous cell carcinoma. 4) Keratoacanthoma: a papillary growth with a central keratin filled crater surrounded by hyperplastic, acanthotic stratified squamous epithelium. The leading edge of the tumor pushes into the underlying dermis. 5) Squamous cell carcinoma (SCC): a tumor with atypical cell nests invading into superficial and mid dermis.

[4] = system: NALM-6 (pre-B ALL); assay: Methylcellulose clonogenic assay; format: cell-based, human
Protocol: as §1, §2

[5] = system: C57BL/6 recipients; assay: Syngeneic islet graft function under long-term treatment; format: in vivo, mouse; details: 50 mg/kg
Protocol: Mice were fasted for 10 hours, and the glucose solution (1.5 g/kg body weight) was injected i.p. Before and after injection of glucose, blood samples were taken and blood glucose levels were measured (as described above) at 0, 30, 60 and 120 min time points.
The vehicle control—(n=3) and WHI-P131-treated C57BL/6 recipients (n=5) of islet allograft were sacrificed on day 14 post transplantation; Jak3 recipients (n=6) were sacrificed on day 100 post transplantation; the C57BL/6 recipients of syngeneic islets—vehicle control—(n=4) and WHI-P131-treated (n=5) were sacrificed on day 180 post transplantation. Kidneys bearing grafts were removed, fixed in 10% formalin and embedded in paraffin. Serial sections of graft area were cut and stained with hematoxylin and eosin. For insulin staining, sections were stained by immunoperoxidase method using 1:100 dilution of polyclonal guinea pig anti-insulin antibody (Gpx Insulin, Dako, Carpinteria, Calif.) and 1:100 dilution of secondary antibody conjugated to horse radish peroxidase (Guinea Pig Immunoglobulins HRP, Dako, Carpinteria, Calif.). Sections were briefly counterstained with hematoxylin and mounted for light microscopic examination.

[6] = group C, 1 mg/cm^2 topical, 20 weeks
[7] = group C, 1 mg/cm^2 topical, 20 weeks, mean ± SEM

**Q.** COc1cc2ncnc(Nc3ccc(O)cc3)c2cc1OC [WHI-P131, 4-(4′-hydroxyl-phenyl)-amino-6,7-dimethoxyquinazoline] was tested. Which “Mean No. of Colonies/10^5 Cells” value ([1]; BT20, 10 μM) did it give?
**A.** 3298 (2940, 3656)

**Q.** What about the “Mean No. of Colonies/10^5 Cells” value ([1]; BT20, 100 μM) of the same compound?
**A.** 2190 (1632, 2748)

**Q.** And the inhibition at 10 µM ([1]; Homo sapiens, BT-20, BT20, 10 μM)?
**A.** 0%

**Q.** What about the inhibition at 100 µM ([1]; Homo sapiens, BT-20, BT20, 100 μM) of the same compound?
**A.** 18.2%

**Q.** And the inhibition at 100 µM ([2]; Homo sapiens)?
**A.** > 99.9%

**Q.** What about the “Mean No. of Colonies/10^5 Cells” value [2] of the same compound?
**A.** 1 (1, 1)

**Q.** And the “inhibition of occurrence of SCC/Florid actinic keratosis” value ([3]; group C vs group B, 20 weeks)?
**A.** about 23%

**Q.** And the No. of lesions/mouse ([3]; group C, 1 mg/cm^2 topical before each UVB 35 mj/cm^2, 20 weeks, mean ± SEM)?
**A.** 1.6 ± 0.4

**Q.** What about the “Percentage of mice with Actinic keratosis” value [3, 6] of the same compound?
**A.** 53 Percentage

**Q.** And the “Percentage of mice with Keratoacanthomas” value [3, 6]?
**A.** 0 Percentage

**Q.** What about the “Percentage of mice with Papilloma” value [3, 6] of the same compound?
**A.** 7 Percentage

**Q.** And the “Percentage of mice with SCC/Florid actinic keratosis” value [3, 6]?
**A.** 57 Percentage

**Q.** What about the “Avg. Vol/lesion” value [3, 7] of the same compound?
**A.** 1.9 ± 0.5

**Q.** What about the Skin lesion volume/mouse [3, 7] of the same compound?
**A.** 3.2 ± 0.9

**Q.** What about the “onset of lesions (first lesion observed after)” value ([3]; weeks of UVB-irradiation, vehicle group around 10 weeks) of the same compound?
**A.** 14 weeks

**Q.** What about the inhibition at 100 µM ([4]; Homo sapiens, NALM-6, 100 μM, 'these leukemia cell lines', read-out: inhibition of in vitro colony formation) of the same compound?
**A.** > 99%

**Q.** And the inhibition at 0.1 µM ([4]; Homo sapiens, NALM-6, 0.1 μM)?
**A.** 0%

**Q.** And the inhibition at 1 µM ([4]; Homo sapiens, NALM-6, 1 μM)?
**A.** 0%

**Q.** What about the inhibition at 10 µM ([4]; Homo sapiens, NALM-6, 10 μM) of the same compound?
**A.** 33.2%

**Q.** And the inhibition at 100 µM ([4]; Homo sapiens, NALM-6, 100 μM, read-out: % Inhibition)?
**A.** > 99.9%

**Q.** And the pEC50 ([4]; Homo sapiens, NALM-6 cells, read-out: EC50, inhibition of clonogenic growth)?
**A.** 4.61

**Q.** And the “Mean No. of Colonies/10^5 Cells” value ([4]; NALM-6, 0.1 μM)?
**A.** 2970 (2756, 3184)

**Q.** What about the “Mean No. of Colonies/10^5 Cells” value ([4]; NALM-6, 1 μM) of the same compound?
**A.** 3180 (3080, 3136)

**Q.** What about the “Mean No. of Colonies/10^5 Cells” value ([4]; NALM-6, 10 μM) of the same compound?
**A.** 1932 (1864, 2000)

**Q.** What about the “Mean No. of Colonies/10^5 Cells” value ([4]; NALM-6, 100 μM) of the same compound?
**A.** 2 (2, 2)

**Q.** What about the “IPGTT, islet function vs controls” value ([5]; day 70) of the same compound?
**A.** no significant difference in islet function

**Q.** And the nonfasting blood glucose ([5]; day 70 of treatment)?
**A.** 124.6 ± 10.8 mg/dL

**Q.** What about the “IPGTT, islet function vs controls” value ([5]; day 180) of the same compound?
**A.** not different

**Q.** What about the “insulin expression in syngeneic grafts vs vehicle” value ([5]; day 180, immunohistochemistry) of the same compound?
**A.** comparable

**Q.** And the “non-fasting blood glucose level” value ([5]; day 180 post transplantation)?
**A.** 115.2 ± 9.2 mg/dL

**Q.** And the “non-fasting blood glucose level vs vehicle control” value ([5]; entire period of 180 days)?
**A.** did not differ
